Here are results for six compounds from BindingDB's records for doi:10.1016/j.bioorg.2014.05.003 (Comsats Institute of Information Technology, 2014).

Alpha-glucosidase MAL12, sequence (P53341 whole entry): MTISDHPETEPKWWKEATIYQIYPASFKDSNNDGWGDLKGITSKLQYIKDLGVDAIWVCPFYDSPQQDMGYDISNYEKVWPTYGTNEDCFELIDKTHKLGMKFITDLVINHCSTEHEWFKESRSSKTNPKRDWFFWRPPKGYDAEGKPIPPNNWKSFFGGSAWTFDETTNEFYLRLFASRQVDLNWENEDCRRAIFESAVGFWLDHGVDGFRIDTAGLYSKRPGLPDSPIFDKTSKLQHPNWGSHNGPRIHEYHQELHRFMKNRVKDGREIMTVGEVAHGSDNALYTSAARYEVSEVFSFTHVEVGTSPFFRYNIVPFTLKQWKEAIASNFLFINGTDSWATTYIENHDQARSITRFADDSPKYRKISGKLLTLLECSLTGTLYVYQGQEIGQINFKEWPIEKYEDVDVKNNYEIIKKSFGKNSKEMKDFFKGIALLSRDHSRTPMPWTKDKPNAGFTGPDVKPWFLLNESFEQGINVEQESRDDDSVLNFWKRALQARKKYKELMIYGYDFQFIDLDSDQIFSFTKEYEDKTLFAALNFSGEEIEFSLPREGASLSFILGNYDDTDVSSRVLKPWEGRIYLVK

This assay addresses Alpha-glucosidase MAL12 (Saccharomyces cerevisiae (strain ATCC 204508 / S288c), UniProt P53341). The assay is described as follows: Glucosidase assay. Conditions: pH 6.8; 37 °C. The method, then: Reaction mixture (100 µL) contained 70 µL 50 mM Na2HPO4 buffer, pH 6.8, 10 µL test compound (0.5 mM), followed by the addition of 10 µL enzyme (0.0234 units). The mixture was pre-incubated for 10 min at 37 °C and pre-read at 400 nm. The reaction was initiated by the addition of 10 µL of 0.5 mM substrate (p-nitrophenyl glucopyranoside) and incubated at 37 °C for 30 min. The absorbance of p-nitrophenol was measured at 400 nm.
Regarding `CCOC(=O)[C@H]1[C@@H]2NC(=O)NC1(C)Oc1ccccc12` [(+-)2,6-Methano-4-oxo-3,4,5,6-tetrahydro-2H-[1,3,5]benzoxadiazocines (4d)], the IC50 – broadly, the concentration at which inhibition is half-maximal – was determined as 122 µM.
The compound `CCOC(=O)C1C(C)=NC(=O)NC1c1ccc(Cl)cc1` (stereo unspecified) [Ethyl 4-(4-chlorophenyl)-6-methyl-2-oxo-1,2,3,4-tetrahydropyrimidine-5-carboxylate (4b)] showed an IC50 of 213 µM.
The same measure for `CCOC(=O)C1C(C)=NC(=O)NC1c1ccc(O)c(OC)c1` (stereo unspecified) [Ethyl 4-(4-hydroxy-3-methoxyphenyl)-6-methyl-2-oxo-1,2,3,4-tetrahydropyrimidine-5-carboxylate (4e)]: 305 µM; for `CCOC(=O)C1C(C)=NC(=O)NC1c1ccccc1` (stereo unspecified) [Ethyl 6-methyl-2-oxo-4-phenyl-1,2,3,4-tetrahydropyrimidine-5-carboxylate (4a)]: 143 µM; for `CCOC(=O)C1C(C)=NC(=O)NC1c1ccc(C)cc1` (stereo unspecified) [Ethyl 6-methyl-4-(4-methylphenyl)-2-oxo-1,2,3,4-tetrahydropyrimidine-5-carboxylate (4f)]: 112 µM.
In turn, `CCOC(=O)C1C(C)=NC(=S)NC1c1ccc(C)cc1` (stereo unspecified) [Ethyl 6-methyl-4-(4-methylphenyl)-2-thioxo-1,2,3,4-tetrahydropyrimidine-5-carboxylate (4l)] gave a 50% inhibitory concentration (IC50) of 125 µM. This IC50 and that of the compound before are within 1.5-fold of each other.
